Measured values reported in PMC3388080 (PLoS ONE, 2012).
Where two headings read alike, the source gives them in different places.

Assays:
rHCRTR1 [1] = target: T1, rHCRTR1 (Rattus norvegicus, UniProt P56718); assay: Inhibition of [^3H]almorexant binding to HEK293-rHCRTR1 membranes; settings: read-out: Ki
T1 construct: expressed in transfected cells; host or cells: HEK293 (transient transfection, pCI-Neo vector), membrane preparation
T1 sequence (P56718 1-416): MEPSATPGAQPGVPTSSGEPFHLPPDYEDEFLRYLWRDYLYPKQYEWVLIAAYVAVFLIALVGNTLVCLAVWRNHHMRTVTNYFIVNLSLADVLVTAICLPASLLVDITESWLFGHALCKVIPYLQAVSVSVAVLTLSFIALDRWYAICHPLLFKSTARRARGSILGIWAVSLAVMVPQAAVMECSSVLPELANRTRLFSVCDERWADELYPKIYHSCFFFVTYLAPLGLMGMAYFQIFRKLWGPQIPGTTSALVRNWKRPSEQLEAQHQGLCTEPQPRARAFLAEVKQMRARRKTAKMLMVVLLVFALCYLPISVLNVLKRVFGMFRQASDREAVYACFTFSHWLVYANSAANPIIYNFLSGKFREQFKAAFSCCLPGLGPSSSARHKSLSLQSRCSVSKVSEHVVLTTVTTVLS
Description: (§1) The rat cDNAs encoding HCRTR1 (Accession No. P56718) and HCRTR2 (Accession No. P56719) were subcloned into pCI-Neo expression vectors (Promega, Madison, WI) and used to transfect HEK293 cells (acquired commercially from ATCC-LGC, Molsheim, France) as previously described.

rHCRTR2 = target: T2, rHCRTR2 (Rattus norvegicus, UniProt P56719); assay: Inhibition of [^3H]almorexant binding to HEK293-rHCRTR2 membranes
T2 construct: expressed in transfected cells; host or cells: HEK293 (transient transfection, pCI-Neo vector), membrane preparation
T2 sequence (P56719 whole entry): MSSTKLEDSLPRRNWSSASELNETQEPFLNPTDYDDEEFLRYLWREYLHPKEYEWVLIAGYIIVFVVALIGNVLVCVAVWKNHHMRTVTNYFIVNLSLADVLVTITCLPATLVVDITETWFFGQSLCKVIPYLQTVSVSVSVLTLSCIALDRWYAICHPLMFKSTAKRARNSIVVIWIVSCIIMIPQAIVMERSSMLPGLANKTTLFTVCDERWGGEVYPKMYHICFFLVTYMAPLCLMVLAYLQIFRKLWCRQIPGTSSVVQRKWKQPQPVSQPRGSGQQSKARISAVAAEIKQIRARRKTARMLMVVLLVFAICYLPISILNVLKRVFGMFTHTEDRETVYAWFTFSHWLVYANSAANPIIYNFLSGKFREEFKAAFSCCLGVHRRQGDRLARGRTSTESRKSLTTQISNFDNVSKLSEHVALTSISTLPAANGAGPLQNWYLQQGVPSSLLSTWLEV
Description: as §1

in vivo = settings: rat, in vivo
Protocol: (§2) Pharmacokinetic analyses were performed at F. Hoffmann-La Roche as described in supporting Materials and Methods S1.
(§3) Cmax, maximum concentration; Tmax, time at which maximum concentration was observed; AUC, area under the plasma concentration vs. time curve; CL, clearance; Vss, volume of distribution at steady state; T1/2, terminal half-life; F, bioavailability; Fu, Fraction unbound. Plasma values are mean, n=2.

in vitro [2] = settings: human, plasma
Protocol: as §2

in vitro [3] = settings: rat, plasma
Protocol: as §2, §3

[4] = Stability in human plasma
Protocol: as §2

Stability in rat plasma = assay: Stability in rat plasma
Protocol: as §2

rHCRTR1 [5] = target: T1, rHCRTR1; set-up: method as in PMID 14691055; settings: cited from earlier work
[6] = set-up: method as in PMID 19363060; settings: 30 mg/kg, cited from earlier work
HCRTR1 = target: T3, HCRTR1 (Rattus norvegicus, UniProt P56718); set-up: method as in PMID 19363060; settings: subcutaneous 30 mg/kg; tenia tecta; cited from earlier work
T3 construct: from tissue; host or cells: coronal brain sections of male Sprague-Dawley rats (locus coeruleus)
T3 sequence (P56718 1-416): T1 sequence (P56718 1-416)

Ki (rHCRTR1 [1]): 45.7 ± 4.1 nM | Ki (rHCRTR2): 5.37 ± 2.2 µM | AUC/Dose (in vivo; Wistar, iv): 7996.40 ng/h/mL | Tmax (in vivo; Wistar, iv): 0 h | Vd (in vivo; Wistar, iv): 0.2 L/kg | clearance (in vivo; Wistar, iv): 2.1 mL/min/kg | half-life (in vivo; Wistar, iv): 67.2 min | Cmax/Dose (in vivo; Wistar, iv, 12.1 mg/kg): 4738.30 ng/mL | AUC/Dose (in vivo; Wistar, po): 3455.70 ng/h/mL | Tmax (in vivo; Wistar, po): 2.67 h | bioavailability (in vivo; Wistar, po): 43.2% | half-life (in vivo; Wistar, po): 117 min | Cmax/Dose (in vivo; Wistar, po, 18.16 mg/kg): 704.8 ng/mL | Vss (in words) (in vivo): low | systemic plasma clearance (in words) (in vivo): low | oral bioavailability (in words) (in vivo; po): medium | fraction unbound (in vitro [2]): 0.003 | fraction unbound (in vitro [3]): < 0.001 | stability in plasma ([4]; 1 h): 94% | stability in plasma ([4]; 4 h): 88% | stability in plasma (Stability in rat plasma; 1 h): 101% | stability in plasma (Stability in rat plasma; 4 h): 107%
Compound: Cc1cc(NC(=O)Nc2ccc(N(C)C)cc2)c2cc(F)cc(F)c2n1 [SB-408124, 1-(6,8-difluoro-2-methyl-quinolin-4-yl)-3-(4-dimethylamino-phenyl)-urea]
Ki (rHCRTR1 [5]): 26.9 nM | brain-to-plasma ratio ([6]; calculated from Cmax values): 0.012 | Cmax ([6]; read-out: plasma Cmax): 84.3 µM | HCRTR1 occupancy (HCRTR1): 90%
